Test results reported in PubChem BioAssay AID1963864 (Molecular Pharmacology Branch, DTP, NCI, 2024).
“And” between values parts separate entries of the source, which are not always exact repeats. Identical values can stand only once.

System: KRAS PDC multicell spheroid viability
Test: Anticancer human tumor 521955-158-R6-J3-PDC patient-derived pancreatic carcinoma cell line growth inhibition [KRAS2]
Conditions: for viability, T/C: stronger effect = lower value; active = viability on the fitted dose curve at most 10% of control; inactive = the rest
How it was run: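 Combination screen of spheroid viability in tumor-cell co-cultures with endothelial (HUVEC) and mesenchymal stem cell stroma. Each agent was tested in half-log dilutions, topping at clinical Cmax or at 10 microM without a known Cmax.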

[1] = curve of first compound, second compound 0.1 µM
[2] = curve of first compound, second compound 0.316 µM
[3] = curve of first compound, second compound 1 µM
[4] = curve of first compound, second compound 3.16 µM
[5] = second compound 0.1 µM, first compound 0.0316 µM
[6] = second compound 0.1 µM, first compound 0.1 µM
[7] = second compound 0.316 µM, first compound 0.0316 µM
[8] = second compound 0.316 µM, first compound 0.1 µM
[9] = second compound 1 µM, first compound 0.0316 µM
[10] = second compound 1 µM, first compound 0.1 µM
[11] = second compound 3.16 µM, first compound 0.0316 µM
[12] = second compound 3.16 µM, first compound 0.1 µM
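Note: drug exposure lasted seven days.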
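Throughout, for viability, T/C: 100% = DMSO vehicle wells and lower means fewer viable cells.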

CC(C)n1nc(-c2ccc3oc(N)nc3c2)c2c(N)ncnc21 + C=CC(=O)N1CCN(c2nc(OCC3CCCN3C)nc3c2CCN(c2cccc4cccc(C)c24)C3)CC1CC#N
0.00347 µM: IC50 [4]
0.0728 µM: IC50 [2]
0.0679 µM: IC50 [1]
inactive: viability, T/C (second compound 0.0316 µM, first compound 0.000316 µM) 98% | viability, T/C (second compound 0.0316 µM, first compound 0.001 µM) 86.7% | viability, T/C (second compound 0.0316 µM, first compound 0.00316 µM) 85.4% | viability, T/C (second compound 0.0316 µM, first compound 0.01 µM) 62.3% | viability, T/C (second compound 0.0316 µM, first compound 0.0316 µM) 63% | viability, T/C (second compound 0.0316 µM, first compound 0.1 µM) 44.8% | viability, T/C (second compound 0.1 µM, first compound 0.000316 µM) 90.8% | viability, T/C (second compound 0.1 µM, first compound 0.001 µM) 86.4% | viability, T/C (second compound 0.1 µM, first compound 0.00316 µM) 78.2% | viability, T/C (second compound 0.1 µM, first compound 0.01 µM) 77.6% | viability, T/C [5] 59.8% | viability, T/C [6] 44.2% | viability, T/C (second compound 0.316 µM, first compound 0.000316 µM) 94.2% | viability, T/C (second compound 0.316 µM, first compound 0.001 µM) 90.7% | viability, T/C (second compound 0.316 µM, first compound 0.00316 µM) 80.6% | viability, T/C (second compound 0.316 µM, first compound 0.01 µM) 74.4% | viability, T/C [7] 60.3% | viability, T/C [8] 45.9% | viability, T/C (second compound 1 µM, first compound 0.000316 µM) 81.8% | viability, T/C (second compound 1 µM, first compound 0.001 µM) 68.6% | viability, T/C (second compound 1 µM, first compound 0.00316 µM) 73.3% | viability, T/C (second compound 1 µM, first compound 0.01 µM) 54.2% | viability, T/C [9] 61.2% | viability, T/C [10] 47% | viability, T/C (second compound 3.16 µM, first compound 0.000316 µM) 60.7% | viability, T/C (second compound 3.16 µM, first compound 0.001 µM) 41.7% | viability, T/C (second compound 3.16 µM, first compound 0.00316 µM) 54.5% | viability, T/C (second compound 3.16 µM, first compound 0.01 µM) 8.94% | viability, T/C [11] 39.6% | viability, T/C [12] 21.8%
0.0691 µM: IC50 (curve of first compound, second compound 0.0316 µM)
0.0871 µM: IC50 [3]

COC(=O)c1ccc2c(C(=Nc3ccc(N(C)C(=O)CN4CCN(C)CC4)cc3)c3ccccc3)c(O)[nH]c2c1 + C=CC(=O)N1CCN(c2nc(=O)n(-c3c(C)ccnc3C(C)C)c3nc(-c4c(O)cccc4F)c(F)cc23)C(C)C1
3.96 µM: IC50 [2]
3.14 µM: IC50 [3]
4.73 µM: IC50 [1]
inactive: viability, T/C [5] 96.2% | viability, T/C [6] 102% | viability, T/C (second compound 0.1 µM, first compound 0.316 µM) 116% | viability, T/C (second compound 0.1 µM, first compound 1 µM) 119% | viability, T/C (second compound 0.1 µM, first compound 3.16 µM) 76.8% | viability, T/C [7] 92.8% | viability, T/C [8] 108% | viability, T/C (second compound 0.316 µM, first compound 0.316 µM) 120% | viability, T/C (second compound 0.316 µM, first compound 1 µM) 128% | viability, T/C (second compound 0.316 µM, first compound 3.16 µM) 61.9% | viability, T/C [9] 103% | viability, T/C [10] 110% | viability, T/C (second compound 1 µM, first compound 0.316 µM) 119% | viability, T/C (second compound 1 µM, first compound 1 µM) 128% | viability, T/C (second compound 1 µM, first compound 3.16 µM) 49.6% | viability, T/C [11] 108% | viability, T/C [12] 94.6% | viability, T/C (second compound 3.16 µM, first compound 0.316 µM) 94.2% | viability, T/C (second compound 3.16 µM, first compound 1 µM) 123% | viability, T/C (second compound 3.16 µM, first compound 3.16 µM) 59.9% | viability, T/C (second compound 10 µM, first compound 0.0316 µM) 82.5% | viability, T/C (second compound 10 µM, first compound 0.1 µM) 83.3% | viability, T/C (second compound 10 µM, first compound 0.316 µM) 88.9% | viability, T/C (second compound 10 µM, first compound 1 µM) 89% | viability, T/C (second compound 10 µM, first compound 3.16 µM) 59%
3.84 µM: IC50 [4]
active: viability, T/C (second compound 0.1 µM, first compound 10 µM) 0.24% | viability, T/C (second compound 0.316 µM, first compound 10 µM) 0.9% | viability, T/C (second compound 1 µM, first compound 10 µM) 3.61% | viability, T/C (second compound 3.16 µM, first compound 10 µM) 1.53% | viability, T/C (second compound 10 µM, first compound 10 µM) 0.68%
3.77 µM: IC50 (curve of first compound, second compound 10 µM)

Cn1nccc1Nc1nccc(-c2cc3c(s2)C(C)(C)N(CCN2CCOCC2)C3=O)n1
> 10 µM: IC50 (curve of compound)
inactive: viability, T/C (compound 0.0316 µM) 109% and 83.6% | viability, T/C (compound 0.1 µM) 112% and 98.5% | viability, T/C (compound 0.316 µM) 123% and 98.7% | viability, T/C (compound 1 µM) 105% and 91.8% | viability, T/C (compound 3.16 µM) 85.4% and 76% | viability, T/C (compound 10 µM) 73.7% and 66.2%
